Measured values: patent US20020115640A1, “Farnesyltransferase inhibitors” (priority 2000, published 2002)

Molecular target: T1, farnesyltransferase (Rattus norvegicus, UniProt Q02293+Q04631)
T1 construct: The enzyme can be purified according to Cell, 62: 81-88 (1990), utilizing steps one, two, and three; from tissue; host or cells: rat brain
Test: Inhibition of farnesyltransferase (3H-farnesyldiphosphate / H-Ras filter assay)
Assay type: biochemical
Settings: 3H-farnesyldiphosphate 0.6 μM, H-Ras 5.0 μM, 37° C., 30 minutes
Description: The ability of the compounds of the present invention to inhibit farnesyltransferase can be measured according to the method described in J. Biol. Chem., 266: 14603 (1991) or J. Biol. Chem., 270:660-664 (1995). Procedures for determination of the inhibition of farnesylation of the oncogene protein Ras are described in J. Biol. Chem., 266:15575-15578 (1991) and U.S. Pat. No. 5,245,061. Inhibition of rat brain farnesyltransferase can also be measured in vitro using an Amersham Life Science commercial scintillation proximity assay kit and substituting a biotin-K Ras B fragment (0.1 μM final concentration) for the biotin-lamin substrate provided by Amersham. The enzyme can be purified according to Cell, 62: 81-88 (1990), utilizing steps one, two, and three. […] The percent inhibition of the farnesylation caused by the compounds of the present invention (at 10^−6 M) compared to an uninhibited control sample can be evaluated in the same Amersham test system.
The mixture was brought to 37° C., treated with enzyme, incubated for 30 minutes, treated with 1 M HCl/ethanol (1 mL) to stop the reaction, stirred for 15 minutes at room temperature, diluted with ethanol (2 mL), filtered through a 2.5 cm glass microfiber filter (Whatman) with ethanol rinses (4×2 mL). The glass transferred to a scintillation vial and treated with scintillation fluid (5 mL). The radioisotope retained on the glass fiber filter was counted and reflected the activity of the enzyme.

T1 sequence (Q02293 whole entry, one chain of several): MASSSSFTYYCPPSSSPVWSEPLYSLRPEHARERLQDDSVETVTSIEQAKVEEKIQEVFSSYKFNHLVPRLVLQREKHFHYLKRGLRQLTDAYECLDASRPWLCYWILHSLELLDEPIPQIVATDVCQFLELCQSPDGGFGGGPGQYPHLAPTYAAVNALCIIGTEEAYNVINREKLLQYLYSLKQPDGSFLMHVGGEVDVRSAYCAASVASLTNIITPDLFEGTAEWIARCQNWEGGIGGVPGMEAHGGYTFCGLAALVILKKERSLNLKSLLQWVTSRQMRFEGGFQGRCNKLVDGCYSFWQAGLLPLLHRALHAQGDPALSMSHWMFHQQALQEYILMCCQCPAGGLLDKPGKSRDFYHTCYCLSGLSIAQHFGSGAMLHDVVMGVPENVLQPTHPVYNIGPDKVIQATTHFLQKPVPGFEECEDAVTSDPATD

Molecule | inhibition at 0.1 µM (test compound at 10^−7 M) [%] | also measured
4-(((5-chloro-4′-(trifluoromethyl)(1,1′-biphenyl)-2-yl)methoxy)(1-methyl-1H-imidazol-5-yl)methyl)benzonitrile [Example 26] | – | % Inhibition at 10^−7 M (test compound at 10^−7 M): 98%
Cn1cncc1[C@](O)(COc1ccc(C#N)cc1-c1ccc(OC(F)(F)F)cc1)c1ccc(C#N)cc1 (single isomer, unassigned) [Example 93] | – | % Inhibition at 10^−9 M (test compound at 10^−9 M (stated in the cell)): 90 (10^−9M) %
Cn1cncc1C(OCc1ccc(Cl)cc1I)c1ccc(C#N)cc1 (stereo not drawn) [Example 1, 4-(((4-chloro-2-iodobenzyl)oxy)(1-methyl-1H-imidazol-5-yl)methyl)benzonitrile] | 73 | –
Cn1cncc1C(OCc1ccc(Cl)cc1-c1ccccc1Cl)c1ccc(C#N)cc1 (stereo not drawn) [Example 3, 4-(((2′,5-dichloro(1,1′-biphenyl)-2-yl)methoxy)(1-methyl-1H-imidazol-5-yl)methyl)benzonitrile] | 90 | –
COc1ccccc1-c1cc(Cl)ccc1COC(c1ccc(C#N)cc1)c1cncn1C (stereo not drawn) [Example 5, 4-(((5-chloro-2′-methoxy(1,1′-biphenyl)-2-yl)methoxy)(1-methyl-1H-imidazol-5-yl)methyl)benzonitrile] | 79 | –
Cn1cncc1C(OCc1ccc(Cl)cc1-c1cccc2ccccc12)c1ccc(C#N)cc1 (stereo not drawn) [Example 12, 4-(((4-chloro-2-(1-naphthyl)benzyl)oxy)(1-methyl-1H-imidazol-5-yl)methyl)benzonitrile] | 92 | –
CC(=O)c1ccccc1-c1cc(Cl)ccc1COC(c1ccc(C#N)cc1)c1cncn1C (stereo not drawn) [Example 15, 4-(((2′-acetyl-5-chloro(1,1′-biphenyl)-2-yl)methoxy)(1-methyl-1H-imidazol-5-yl)methyl)benzonitrile] | 82 | –
CC(=O)c1ccc(-c2cc(Cl)ccc2COC(c2ccc(C#N)cc2)c2cncn2C)cc1 (stereo not drawn) [Example 16, 4-(((4′-acetyl-5-chloro(1,1′-biphenyl)-2-yl)methoxy)(1-methyl-1H-imidazol-5-yl)methyl)benzonitrile] | > 83 | –
Cn1cncc1C(OCc1ccc(Cl)cc1-c1ccc(C(C)(C)C)cc1)c1ccc(C#N)cc1 (stereo not drawn) [Example 18, 4-(((4′-tert-butyl-5-chloro(1,1′-biphenyl)-2-yl)methoxy)(1-methyl-1H-imidazol-5-yl)methyl)benzonitrile] | 97 | –
COc1ccc(OC)c(-c2cc(Cl)ccc2COC(c2ccc(C#N)cc2)c2cncn2C)c1 (stereo not drawn) [Example 20, 4-(((5-chloro-2′,5′-dimethoxy(1,1′-biphenyl)-2-yl)methoxy)(1-methyl-1H-imidazol-5-yl)methyl)benzonitrile] | 94 | –
COc1ccc(-c2cc(Cl)ccc2COC(c2ccc(C#N)cc2)c2cncn2C)cc1OC (stereo not drawn) [Example 21, 4-(((5-chloro-3′,4′-dimethoxy(1,1′-biphenyl)-2-yl)methoxy)(1-methyl-1H-imidazol-5-yl)methyl)benzonitrile] | 91 | –
Cn1cncc1C(OCc1ccc(Cl)cc1-c1ccc2c(c1)OCO2)c1ccc(C#N)cc1 (stereo not drawn) [Example 23, 4-(((2-(1,3-benzodioxol-5-yl)-4-chlorobenzyl)oxy)(1-methyl-1H-imidazol-5-yl)methyl)benzonitrile] | > 92 | –
COc1cc(-c2cc(Cl)ccc2COC(c2ccc(C#N)cc2)c2cncn2C)cc(OC)c1OC (stereo not drawn) [Example 24, 4-(((5-chloro-3′,4′,5′-trimethoxy(1,1′-biphenyl)-2-yl)methoxy)(1-methyl-1H-imidazol-5-yl)methyl)benzonitrile] | 94 | –
Cn1cncc1C(OCc1ccc(Cl)cc1-c1cccc(Cl)c1Cl)c1ccc(C#N)cc1 (stereo not drawn) [Example 25, 4-((1-methyl-1H-imidazol-5-yl)((2′, 3′,5-trichloro(1,1′-biphenyl)-2-yl)methoxy)methyl)benzonitrile] | 87 | –
Cn1cncc1C(OCc1ccc(Cl)cc1-c1cc(Cl)cc(Cl)c1)c1ccc(C#N)cc1 (stereo not drawn) [Example 27, 4-((1-methyl-1H-imidazol-5-yl)((3′,5,5′-trichloro(1,1′-biphenyl)-2-yl)methoxy)methyl)benzonitrile] | 47 | –

Second part, led by results:

inhibition at 0.1 µM (test compound at 10^−7 M) [%] | Molecule | also measured
89 | Cc1ccccc1-c1cc(Cl)ccc1COC(c1ccc(C#N)cc1)c1cncn1C (stereo not drawn) [Example 4, 4-(((5-chloro-2′-methyl(1,1′-biphenyl)-2-yl)methoxy)(1-methyl-1H-imidazol-5-yl)methyl)benzonitrile] | –
> 91 | Cn1cncc1C(OCc1ccc(Cl)cc1-c1cccc(Cl)c1)c1ccc(C#N)cc1 (stereo not drawn) [Example 6, 4-(((3′,5-dichloro(1,1′-biphenyl)-2-yl)methoxy)(1-methyl-1H-imidazol-5-yl)methyl)benzonitrile] | –
> 85 | Cc1cccc(-c2cc(Cl)ccc2COC(c2ccc(C#N)cc2)c2cncn2C)c1 (stereo not drawn) [Example 7, 4-(((5-chloro-3′-methyl(1,1′-biphenyl)-2-yl)methoxy)(1-methyl-1H-imidazol-5-yl)methyl)benzonitrile] | –
96 | Cn1cncc1C(OCc1ccc(Cl)cc1-c1cccc(C(F)(F)F)c1)c1ccc(C#N)cc1 (stereo not drawn) [Example 8, 4-(((5-chloro-3′-(trifluoromethyl)(1,1′-biphenyl)-2-yl)methoxy)(1-methyl-1H-imidazol-5-yl)methyl)benzonitrile] | –
> 91 | COc1cccc(-c2cc(Cl)ccc2COC(c2ccc(C#N)cc2)c2cncn2C)c1 (stereo not drawn) [Example 9, 4-(((5-chloro-3′-methoxy(1,1′-biphenyl)-2-yl)methoxy)(1-methyl-1H-imidazol-5-yl)methyl)benzonitrile] | –
94 | Cn1cncc1C(OCc1ccc(Cl)cc1-c1cccc(F)c1)c1ccc(C#N)cc1 (stereo not drawn) [Example 10, 4-(((5-chloro-3′-fluoro(1,1′-biphenyl)-2-yl)methoxy)(1-methyl-1H-imidazol-5-yl)methyl)benzonitrile] | –
92 | Cn1cncc1C(OCc1ccc(Cl)cc1-c1ccc(Cl)cc1)c1ccc(C#N)cc1 (stereo not drawn) [Example 11, 4-(((4′,5-dichloro(1,1′-biphenyl)-2-yl)methoxy)(1-methyl-1H-imidazol-5-yl)methyl)benzonitrile] | –
84 | Cn1cncc1C(OCc1ccc(Cl)cc1-c1cccc(N)c1)c1ccc(C#N)cc1 (stereo not drawn) [Example 13, 4-(((3′-amino-5-chloro(1,1′-biphenyl)-2-yl)methoxy)(1-methyl-1H-imidazol-5-yl)methyl)benzonitrile] | –
96 | Cn1cncc1C(OCc1ccc(Cl)cc1-c1cccc(C#N)c1)c1ccc(C#N)cc1 (stereo not drawn) [Example 14, 3′-chloro-6′-(((4-cyanophenyl)(1-methyl-1H-imidazol-5-yl)methoxy)methyl)(1,1′-biphenyl)-3-carbonitrile] | –
> 85 | Cc1ccc(-c2cc(Cl)ccc2COC(c2ccc(C#N)cc2)c2cncn2C)cc1C (stereo not drawn) [Example 17, 4-(((5-chloro-3′,4′-dimethyl(1,1′-biphenyl)-2-yl)methoxy)(1-methyl-1H-imidazol-5-yl)methyl)benzonitrile] | –
> 95 | CCOc1cccc(-c2cc(Cl)ccc2COC(c2ccc(C#N)cc2)c2cncn2C)c1 (stereo not drawn) [Example 19, 4-(((5-chloro-3′-ethoxy(1,1′-biphenyl)-2-yl)methoxy)(1-methyl-1H-imidazol-5-yl)methyl)benzonitrile] | –
64 | CC(=O)Nc1cccc(-c2cc(Cl)ccc2COC(c2ccc(C#N)cc2)c2cncn2C)c1 (stereo not drawn) [Example 22, N-(5′-chloro-2′-(((4-cyanophenyl)(1-methyl-1H-imidazol-5-yl)methoxy)methyl)(1,1′-biphenyl)-3-yl)acetamide] | –
